This is an account of results in PMC7801115, “Preclinical in vitro screening of newly synthesised amidino substituted benzimidazoles and benzothiazoles” (Journal of Enzyme Inhibition and Medicinal Chemistry, 2021).

Molecules are shown by their SMILES. pIC50: −log10 of the molar value. A value given as a limit tells only on which side of the number the result lay.

For orientation: pIC50 means the IC50 on a negative log10 scale, so that one unit is a factor of ten. For orientation: solubility (kinetic) means solubility judged after dilution from a stock solution rather than from solid. The efflux ratio is a quotient of directional permeabilities that is used to spot active efflux.

The subject of one data set is NCI-H358. Description: BrdU proliferation assay, 2D cell culture. It is filed as cell-based. As to conditions: Homo sapiens, NCI-H358, 2D cell culture, ±SD, N = 2. The procedure: (§1) Cells were grown in 96 well cell star polystyrene plates. 10,000 cells/well were seeded in wells 4 h prior the treatment with different compounds concentrations and incubated for 72 h. A cell viability assay was performed according to the manufacturer’s instruction, using CellTiter 96 aqueous solution, MTS kit (Promega, Madison, WI, USA). After 0.5–2 h of cell incubation with MTS in 2 D cell culture, the plates were read using PE EnVision absorbance at 490 nm. […] Since we prefer homogeneous assays (mix and read procedures) and therefore MTS is more practical (one step less than MTT). MTS is more sensitive and accurate in comparison with MTT assay.
(§2) Proliferation assay was performed using Cell Proliferation ELISA, BrdU (Sigma, St. Louis, MO, USA). Briefly, 48 h hours after compound addition, 10 µM of BrdU was added to each well and incubated for following 24 h. After incubation, single cell suspension was made for 3 D cell culture in the new 96 well plate. Plates were centrifuged and supernatants were removed from each plate (for 2 D and 3 D cell culture) followed by 60 min incubation at 60° C. The rest of the proliferation assay was performed according to the manufacturer instructions.
(§3) Calculation of IC50 data, curves and QC analysis is made by using Excel tools and GraphPadPrism software (La Jolla, CA), v. […] QC criteria parameters (Z', S:B, R2, HillSlope) were checked for every IC50 curve.

In a further data set the test system is HCC827. Description: BrdU proliferation assay, 2D cell culture. In kind it is cell-based. Conditions: Homo sapiens, HCC827, 2D cell culture, ±SD, N = 2. The procedure:
as §1, §2, §3

A short description of another data set: Kinetic solubility. It is filed as physicochemical. Conditions: aqueous buffer, kinetic from dmso stock, phosphate buffer 50 mM, pH 7.4, 1% DMSO, 37 °C. The procedure: Test compounds and assay controls (sulfaphenazole and α-naphtoflavone) were serially diluted in DMSO by factor 3.3x, 3x, 3.3x and 3x, resulting in a total of 5 different concentrations. Phosphate buffer (50 mM, pH 7.4) was spiked with diluted test compounds and controls with final concentration range in the assay as follows: 100, 30, 10, 3 and 1 µM (1% DMSO). Plate was then incubated by gentle shaking (200–300 rpm) for 1 h and 45 min at 37 °C. After additional15 min on room temperature (without shaking), plate absorbance at 620 nm was measured with microplate reader Tecan, Infinite F500 (total incubation time = 2 h).

The test system of data set [1] is P-glycoprotein (human MDR1). Description: MDCKII-MDR1 permeability and P-glycoprotein substrate assay. In kind it is in vitro ADME, canine cells over-expressing human MDR1. Conditions: dog; for efflux ratio at 60 min, 10 µM: MDCK-MDR1, pH 7.4, without P-gp inhibitor; for Papp A→B at 60 min, 10 µM / Papp B→A at 60 min, 10 µM: MDCK-MDR1, pH 7.4, without P-gp inhibitor; for Papp A→B at 60 min, 10 µM: read-out: MDCKII-MDR1 Papp(A2B); for Papp B→A at 60 min, 10 µM: read-out: MDCKII-MDR1 Papp(B2A). Here is the method:
Permeability and P-glycoprotein substrate assessment was done on MDCKII-hMDR1, Madin-Darby canine epithelial cells over-expressing human MDR1 gene, coding for P-glycoprotein.
Cells were prepared for transport studies by seeding on 96-well cell culture inserts (Millipore, MA, USA) in a concentration of 0.25 × 10^6 cells per ml. The cells were fed with fresh medium 24 h post seeding and cultured to confluence for 3 days before use. On the day of experiment, the cell monolayers were washed and equilibrated with transport medium (DPBS, pH 7.4 containing 1% DMSO) with or without P-gp specific inhibitor, elacridar (2 µM) for 45 min (37 °C, 5% CO2, 95% humidity). Test compound solution consisted of test substance (10 μM) in D-PBS medium containing lucifer yellow (100 μM) and 1% DMSO. Transport assays were conducted in apical to basolateral (A2B) and basolateral to apical (B2A) directions, respectively. Monolayers were incubated with the compound solution for 60 min at 37 °C under gentle agitation. Apical and basolateral compartments were sampled at the end of the transport experiment, while donor solutions were also sampled at the beginning of the experiment in order to determine initial concentration. Test substance concentrations in both compartments were determined by LC-MS/MS. There were several controls used in the assay: 1) amprenavir (0.5 μM) served as a low permeable control, being also a P-gp substrate; 2) diclofenac (10 μM) was used as a high permeable control; 3) Lucifer yellow, a fluorescent marker for the paracellular membrane transport, was used as a control of cell monolayer integrity.
(§4) All ADME samples were analysed on a Sciex API 4000 or Sciex API4500 Triple Quadrupole Mass Spectrometer (Sciex, Framingham, MA, USA) coupled to a UHPLC System (Shimadzu Nexera X2; Shimadzu, Kyoto, Japan). Samples were injected onto an UPLC column (HALO2 C18, 2.1 × 20 mm, 2 µm or Phenomenex Luna Omega Polar C18, 30 × 2.1 mm, 1.6 µm) and eluted with a gradient at temperature of 50 °C. The mobile phase was composed of acetonitrile (with 0.1% formic acid) and 0.1% formic acid in deionised water. A total run time was 1 or 1.5 min, with the flow rate of 0.7 ml/min (under gradient conditions). A positive ion mode with turbo spray, an ion source temperature of 500 °C and a dwell time of 150 ms were utilised for mass spectrometric detection. Multiple reaction monitoring (MRM) was used at the specific transitions for each compound/control tested: compound 5c: 361.9 → 304.9; compound 5d: 344.8 → 287.9; compound 5e: 349.8 → 292.9; compound 5 g: 350.8 → 293.9; compound 5 h: 344.0 → 286.9; compound 6a: 276.9 → 220.0; compound 5 b: 319.0 → 262.0; compound 6 b: 302.1 → 245.1; compound 6c: 344.9 → 288.0; compound 6d: 333.0 → 276.0; compound 6e: 316.1 → 259.0; compound 6f: 327.1 → 270.0; compound 6 g: 377.1 → 320.1; testosterone: 289.3→ 97.1; propranolol: 260.1 → 182.8; caffeine: 195.2 → 138.1; acebutolol: 337.2 → 116.2, nicardipine: 480.2 → 315.0; verapamil: 455.4 → 165.1; amprenavir: 506.2 → 245.4; diclofenac: 296.1 → 213.7 or 296.2 → 215.3; eucatropine: 292.2 → 109.1; benfluorex: 352.1 → 230.3, and warfarin: 309.2 → 163.2

A further data set in a line: Stability in plasma. In kind it is in vitro ADME. As to conditions: 37 °C. The procedure:
Tested compounds (final concentration of 5 µM, 0.5% DMSO) were incubated for 4 h at 37 °C in human and mouse plasma, respectively. Aliquots were taken at different time points (0, 30, 120 and 240 min) and reaction was terminated by addition of a MeCN/MeOH (2:1) mixture, containing internal standard (diclofenac). Samples were then centrifuged (at 4500 rpm, at 4 °C, for 30 min) and resulting supernatants were subjected to LC-MS/MS analysis. The same procedure was followed for controls used in the assay: propranolol (both species), benfluorex (mouse) and eucatropine (human), respectively.
as §4

Consider `N#Cc1ccc(-c2nc3cc(C4=NCCCN4)ccc3[nH]2)cc1` [Compound 6b, 2–(4-Cyanophenyl)-5(6)–(3,4,5,6-tetrahydropyrimidin-1-ium-2-yl)benzimidazole chloride], for which, in the data set on NCI-H358, the pIC50 is less than 4.30. The compound also gave a negative logarithm of the IC50 (pIC50) in the data set on HCC827 of less than 4.30. Also, in the data set “Kinetic solubility”, the solubility (kinetic) at 2 h is more than 100 µM. In addition, in data set [1], the efflux ratio at 60 min, 10 µM is less than 2; the Papp A→B at 60 min, 10 µM amounted to 0.92 ×10⁻⁶ cm/s; the Papp B→A at 60 min, 10 µM is 1.02 ×10⁻⁶ cm/s. In addition, in “Stability in plasma” (human plasma), the fraction remaining at 4 h, 5 µM was determined as 98%. Also, in the data set “Stability in plasma” (mouse plasma), the fraction remaining at 4 h, 5 µM came to 119%.

With `FC(F)(F)c1ccc(-c2nc3cc(C4=NCCCN4)ccc3[nH]2)cc1` [Compound 6c, 2–(4-Trifluoromethylphenyl)-5(6)–(3,4,5,6-tetrahydropyrimidin-1-ium-2-yl)benzimidazole chloride], the pIC50 in the data set with NCI-H358 was less than 4.30. For the same compound, in the data set with HCC827, the pIC50 was less than 4.30. Moreover, the kinetic solubility at 2 h in “Kinetic solubility” is more than 100 µM. For the same compound, in data set [1], the efflux ratio at 60 min, 10 µM was determined as 2.82; the Papp A→B at 60 min, 10 µM was determined as 0.69 ×10⁻⁶ cm/s; the Papp B→A at 60 min, 10 µM was 1.93 ×10⁻⁶ cm/s. Moreover, in “Stability in plasma” (human plasma), the amount remaining at 4 h, 5 µM came out at 96%. Besides, the fraction remaining at 4 h, 5 µM in “Stability in plasma” (mouse plasma) is 94%.

On to `c1ccc2sc(-c3nc4cc(C5=NCCCN5)ccc4[nH]3)cc2c1` [Compound 6d, 2-(Benzo[b]thiophen-2-yl)-5(6)–(3,4,5,6-tetrahydropyrimidin-1-ium-2-yl)benzimidazole chloride], for which the negative-log IC50 (pIC50) with NCI-H358 was less than 4.30. The compound further showed a pIC50 in the data set with HCC827 of less than 4.30. Besides, the kinetic solubility at 2 h in the data set “Kinetic solubility” was in the range of 10 to 30 µM. Also, in data set [1], the efflux ratio at 60 min, 10 µM is 7.75; the Papp A→B at 60 min, 10 µM stood at 0.11 ×10⁻⁶ cm/s; the Papp B→A at 60 min, 10 µM stood at 0.86 ×10⁻⁶ cm/s. In addition, the share remaining at 4 h, 5 µM in “Stability in plasma” (human plasma) was determined as 95%. Moreover, the fraction remaining at 4 h, 5 µM in “Stability in plasma” (mouse plasma) stood at 92%.

`c1ccc2c(-c3nc4ccc(C5=NCCCN5)cc4[nH]3)c[nH]c2c1` [Compound 6e, 2-(1H-Indol-3-yl)-5(6)–(3,4,5,6-tetrahydropyrimidin-1-ium-2-yl)benzimidazole chloride] gave a pIC50 in the data set on NCI-H358 of less than 4.30. The compound further gave a negative-log IC50 (pIC50) in the data set with HCC827 of less than 4.30. For the same compound, the kinetic solubility at 2 h in “Kinetic solubility” lay within 10 to 30 µM. Besides, in data set [1], the efflux ratio at 60 min, 10 µM was 3.89; the Papp A→B at 60 min, 10 µM turned out to be 0.57 ×10⁻⁶ cm/s; the Papp B→A at 60 min, 10 µM was found to be 2.17 ×10⁻⁶ cm/s. Further, the fraction remaining at 4 h, 5 µM in the data set “Stability in plasma” (human plasma) amounted to 98%. Also, the share remaining at 4 h, 5 µM in the data set “Stability in plasma” (mouse plasma) came to 84%.

The compound `c1ccc2cc(-c3nc4cc(C5=NCCCN5)ccc4[nH]3)ccc2c1` [Compound 6f, 2-(Naphthalene-2-yl)-5(6)–(3,4,5,6-tetrahydropyrimidin-1-ium-2-yl)benzimidazole chloride] gave a pIC50 in the data set on NCI-H358 of less than 4.30. The same compound had a negative-log IC50 (pIC50) in the data set on HCC827 of less than 4.30. The same compound displayed a kinetic solubility at 2 h in the data set “Kinetic solubility” of 30 to 100 µM. Moreover, in data set [1], the efflux ratio at 60 min, 10 µM came out at 3.23; the Papp A→B at 60 min, 10 µM worked out at 0.78 ×10⁻⁶ cm/s; the Papp B→A at 60 min, 10 µM turned out to be 2.49 ×10⁻⁶ cm/s. In addition, the share remaining at 4 h, 5 µM in the data set “Stability in plasma” (human plasma) was 106%.

In the data set on NCI-H358, `c1ccc2c(c1)cc(-c1nc3cc(C4=NCCCN4)ccc3[nH]1)c1ccccc12` [Compound 6g, 2-(Phenanthrene-9-yl)-5(6)–(3,4,5,6-tetrahydropyrimidin-1-ium-2-yl)benzimidazole chloride] showed a negative logarithm of the IC50 (pIC50) of less than 4.30. The compound also gave a pIC50 in the data set with HCC827 of less than 4.30. Also, the solubility (kinetic) at 2 h in the data set “Kinetic solubility” fell in the range of 30 to 100 µM. Further, in data set [1], the efflux ratio at 60 min, 10 µM amounted to 6.6; the Papp A→B at 60 min, 10 µM was found to be 0.02 ×10⁻⁶ cm/s; the Papp B→A at 60 min, 10 µM came out at 0.2 ×10⁻⁶ cm/s. In addition, the fraction remaining at 4 h, 5 µM in “Stability in plasma” (human plasma) is 85%. Further, the amount remaining at 4 h, 5 µM in “Stability in plasma” (mouse plasma) amounted to 81%.
